Consider four compounds from publication PMC8868346, “Novel Series of Dual NRF2 Inducers and Selective MAO-B Inhibitors for the Treatment of Parkinson’s Disease” (Antioxidants, 2022).

One data set concerns SH-SY5Y. The settings on record: MTT reduction. The protocol: They were recovered by centrifugation at 800 rpm for 10 min. Cells from the third to twelfth passage were seeded at a density of 80,000 cells/well in 96-well plates for the neuroprotection studies.
(§1) Basal absorbance was set to 100% and results were normalized to basal conditions.
(§2) Cytotoxicity. LD50 values in several cell cultures employed
(§3) Table S2. Cytotoxicity elicited by 10-18 compounds in SH-SY5Y, AREc32 and mixed pr imary glial cultures. Viability was measured as MTT reduction in presence of increasing concentrations of der ivatives. LD50 values were calcula ted from dose-response curves. Data are expr essed as mean ± SEM of at least 3 independent experiments.
(§4) 1.3. PAMPA control compounds (BBB permeability)
(§5) Table S3. Pr ediction of the BBB passive permeability of control compounds
On the technique in general: Tetrazolium dyes change colour on reduction, which living cells bring about.

Another data set concerns NRF2. In words: NRF2 induction, luciferase activity in AREc32 reporter cells. The class given is cell-based, human. The settings on record: for fold potentiation of NRF2 induction compared to the corresponding -OMe derivative: 11, 12 vs 10, 14, 15 vs 13; for EC50: Homo sapiens, 24 h, concentration required to double luciferase activity compared to basal, read-out: CD (µM) NRF2 Induction. As for the experimental part: Cells were used from the third to twelfth passage.
AREc32 cells were stably transfected with the plasmid pGL-8xARE that implements 8 copies of the antioxidant response element (ARE) sequences followed by luciferase reporter gen. Therefore, NRF2 induction can be related to the activation of ARE sequences by measuring luciferase activity in terms of luminescence production. For NRF2 induction experiments, cells were plated in 96 white flat bottom well plates (20,000 cells/well). After 24 h, cells were incubated with selected compounds at the desired concentrations in duplicates for 24 h. The Luciferase Assay System (Promega E1500) was used according to provider protocol and luminescence was quantified in an Orion II microplate luminometer (Berthold, Germany). Fold induction of luciferase activity was normalized to basal conditions. Data were expressed as CD values, which means the concentration needed to duplicate the luciferase activity compared to basal conditions. CD values were calculated from dose–response curves fitted by non-linear regression for each compound after logarithmic transformation of the data using GraphPad Prism 8.0 software.

The subject of data set [1] is HMOX1 and GCLC in MEF cells. In words: Western blot of NRF2-dependent proteins in WT and NRF2 KO MEF cells. The class given is cell-based, mouse. Particulars: 10 µM, 8 or 16 h. The protocol:
Cell samples were lysed in ice-cold AKT lysis buffer (137 mM of NaCl, 20 mM of NaF, 10% glycerol, 20 mM of Tris–HCl, 1% Nonidet P-40, 1 μg/mL of leupeptin, 1 mM of phenylmethylsulfonylfluoride, 1 mM of sodium pyrophosphate, and 1 mM of Na3VO4, pH 7.5). Protein quantification was performed using the Pierce BCA Protein Assay Kit (ThermoFisher, Madrid, Spain) following manufacturer’s instructions. Then, 30 μg of protein were resolved by sodium dodecyl sulfate-polyacrylamide gel electrophoresis (SDS-PAGE) and transferred to Immobilon-P polyvinylidene difluoride (PVDF) membranes (Millipore Corp.). Membranes were activated with methanol and blocked with 4% bovine serum albumin (BSA) in Tris-buffered saline-Tween (TTBS: 10 mM of Tris, 150 mM of NaCl; 0.2% Tween-20, pH 7.4) for 2 h. After that, membranes were incubated overnight at 4 °C with the corresponding primary antibodies: anti–HMOX1 (1:1000, ab68477, Abcam, Cambridge, UK), anti-glutamate-cysteine ligase catalytic subunit (GCLC, 1:1000, ab41463, Abcam), anti-β-actin (1:50,000, A3854, Sigma–Aldrich, Madrid, Spain). […] Band intensities from specific proteins were analyzed with Fiji software.
A general note: Immunoblotting shows a protein as a band on a membrane.

Data set [2] deals with Mixed primary glial cultures. In words: Cytotoxicity in mixed primary glial cultures (MTT). The settings on record: MTT reduction. The protocol: Mixed primary glial cultures were obtained from cerebral cortex of 2–5-day-old Sprague–Dawley rats. Blood vessels and meninges were first removed in Hank’s balanced salt solution (HBSS) and then forebrains were dissociated in DMEM/F12 medium. After mechanical dissociation, filtering, and centrifugation at 800 rpm for 10 min, cells were plated at a density of 30,000 cells/well in DMEM/F12 medium with 20% (v/v) FBS and 1% penicillin/streptomycin (10,000 units). […] After 5 days, medium was substituted by DMEM/F12 medium with 10% (v/v) FBS. Cells were cultured for 7–10 days before treatment.
as §1, §2, §3, §4, §5

Data set [3] relates to nitrite production in mixed primary glial cultures. The data set is described as follows: Nitrite production in LPS stimulated primary mixed glial cultures (Griess). The class given is cell-based. The settings on record: Rattus norvegicus; 24 h pre-treatment, LPS 1 µg/mL 18 h; read-out: EC50 Nitrite Reduction. As for the experimental part:
Cells were cultured for 7–10 days before treatment.
Primary glial cells were pre-treated with compounds at the desired concentration for 24 h. Then, treatments were removed and glial cells were incubated with lipopolysaccharide (LPS, 1 μg/mL; Sigma–Aldrich, Spain) in the presence of each compound at the desired concentration for 18 h. Nitrite production was then assessed by modified Griess assay. Briefly, 150 µL of each sample was mixed with 75 µL of 4,4′-diamino-diphenylsulfone (Dapsone) and 75 µL of N-(1-naphthyl)ethylenediamine (Neda). The mixture was incubated at room temperature for 5 min. […] Data were normalized to basal conditions, setting this value as 100% of nitrite production. EC50 values were calculated from dose–response curves obtained from representing percentage of nitrites reduction vs. compound concentration.
A general note: Nitrite, measured by Griess reagent, commonly stands in for NO production.

The target in the next data set is T1, MAO-B (Homo sapiens, UniProt P27338).
T1 construct: purchased Sigma–Aldrich
T1 sequence (P27338 1-520): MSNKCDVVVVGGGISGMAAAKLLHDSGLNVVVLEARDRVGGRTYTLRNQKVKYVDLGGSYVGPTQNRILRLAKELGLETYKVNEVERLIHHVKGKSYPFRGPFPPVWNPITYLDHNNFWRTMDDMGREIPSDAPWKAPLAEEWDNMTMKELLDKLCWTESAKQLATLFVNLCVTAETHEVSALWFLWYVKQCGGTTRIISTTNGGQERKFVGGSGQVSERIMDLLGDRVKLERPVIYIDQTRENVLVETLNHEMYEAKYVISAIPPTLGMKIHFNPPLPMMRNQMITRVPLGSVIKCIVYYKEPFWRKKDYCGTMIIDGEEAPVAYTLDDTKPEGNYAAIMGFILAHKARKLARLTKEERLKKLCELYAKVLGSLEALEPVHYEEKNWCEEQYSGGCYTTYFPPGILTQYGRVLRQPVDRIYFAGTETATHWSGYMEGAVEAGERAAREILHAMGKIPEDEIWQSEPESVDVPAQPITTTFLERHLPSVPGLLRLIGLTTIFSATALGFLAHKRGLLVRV
The data set is described as follows: MAO-B reversibility assay (pre-incubation times). The settings on record: 0, 15, 30 min pre-incubation at […] IC50. The class given is biochemical.

The nature of data set [4]: Blood–brain barrier permeation assay (PAMPA). The settings on record: BBB permeability class from Pe.
Method: (§6) Briefly, permeability of the compounds was measured at an initial concentration of 100 µM, including positive and negative controls (Supplementary Data; Table S3). […] After 5 min, 180 µL of each compound solution in PBS (10 mM, pH 7.4) was added to determine their ability to pass the membrane (VD). The 96-well acceptor plate (Multiscreen, Millipore Corp., Madrid Spain) was loaded with 180 µL of PBS (VA). Then, the donor filter plate was carefully placed on the acceptor plate to form a sandwich-like system, which was left undisturbed for 4 h at room temperature. After incubation, the donor plate was removed and the absorbance at the maximum absorption wavelength for each compound was recorded in both the acceptor and donor wells (150 µL/well) using a UV plate reader SPECTROstar Nano (BMG Labtech, Ortenberg, Germany). Concentration of the compounds in the donor and acceptor plates and equilibrium concentration were calculated and expressed as permeability (Pe) according the Equation (1). Results are expressed as mean ± standard error of the mean (SEM) of at least three different experiments in duplicate:(1) logPe =log{C×−ln(1−[drug]acceptor/[drug]equilibrium)} where C=(VD×VA/(VD +VA)×Area×Time) .
Data set [5] has as its system blood-brain barrier (passive diffusion). In words: Blood–brain barrier permeation assay (PAMPA). The settings on record: PAMPA, pH 7.4.
Method: as §6
Data set [6] has the same test system. The data set is described as follows: in vitro. Particulars: PAMPA, pH 7.4.
Method: as §6

What is called Papp is a coefficient for how fast a substance crosses the barrier.

For the compound `C#CCN(CC#C)CCc1c[nH]c2ccc(OC(=O)C=Cc3ccccc3)cc12` [Compound 14, 3-(2-(Di(prop-2-yn-1-yl)amino)ethyl)-1H-indol-5-yl Cinnamate], in the data set with SH-SY5Y, the “LD50 (µM) SH-SY5Y” value was 66.5 ± 9.8 µM. For the same compound, in the data set with NRF2, the “fold potentiation of NRF2 induction compared to the corresponding -OMe derivative” value was 3 fold. Besides, in the data set on NRF2 (AREc32 cells, 24 h, 3, 5, and 10 µM), the “luciferase activity (NRF2 induction) dose–response” value was “significantly increasing luciferase activity”. The EC50 in the data set with NRF2 (AREc32 cells) came out at 5.07 ± 0.23 µM; in data set [3], 19.4 ± 1.4 µM. Further, the “HMOX1 and GCLC protein levels in NRF2 KO MEF cells” value in data set [1] is “not able to increase”. Also, the “HMOX1 and GCLC protein levels in WT MEF cells” value in data set [1] is “increased”. Further, the “LD50 (µM) Mixed primary glial cultures” value in data set [2] is listed as over 30 µM. Further, on MAO-B, the MAO-B inhibition reversibility result is given as “reversible inhibition”. For the same compound, the “PAMPA Prediction” value in data set [4] is given as “CNS + (CNS + (high BBB permeability): Pe (10^−6 cm s^−1) > 4.0)”. This compound displayed a Papp at 4 h, 100 µM in data set [5] of 4.15 ± 1.8 ×10⁻⁶ cm/s.
On to `C#CCN(CC#C)CCc1c[nH]c2ccc(OC)cc12` [Compound 13, N-(2-(5-Methoxy-1H-indol-3-yl)ethyl)-N-(prop-2-yn-1-yl)prop-2-yn-1-amine], for which, in data set [6], the apparent permeability coefficient (Papp) came to 20.3 ± 7.5 ×10⁻⁶ cm/s. Moreover, the EC50 came out at 13.9 ± 1.5 µM in the data set with NRF2 (AREc32 cells) and 12.6 ± 0.53 µM in data set [3]. The “LD50 (µM) Mixed primary glial cultures” value in [2] is reported as over 30 µM. Moreover, the “PAMPA Prediction” value in data set [4] is “CNS + (CNS + (high BBB permeability): Pe (10^−6 cm s^−1) > 4.0)”.
As for `C#CCN(CC#C)CCc1c[nH]c2ccc(OC(=O)/C=C/c3ccc(C)cc3)cc12` [Compound 15, 3-(2-(Di(prop-2-yn-1-yl)amino)ethyl)-1H-indol-5-yl-(E)-3-(p-tolyl) Acrylate], the “LD50 (µM) SH-SY5Y” value with SH-SY5Y is 48.3 ± 6.6 µM. Also, the “fold potentiation of NRF2 induction compared to the corresponding -OMe derivative” value with NRF2 was 3 fold. In addition, the EC50 was 5.76 ± 0.07 µM in the data set with NRF2 (AREc32 cells) and 22.9 ± 3.3 µM in data set [3]. The “LD50 (µM) Mixed primary glial cultures” value in data set [2] is on record as over 30 µM. Besides, in data set [4], the “PAMPA Prediction” value is “CNS + (CNS + (high BBB permeability): Pe (10^−6 cm s^−1) > 4.0)”. This compound also returned an apparent permeability coefficient (Papp) at 4 h, 100 µM in data set [5] of 4.46 ± 1.9 ×10⁻⁶ cm/s.
`C#CCNCCc1c[nH]c2ccc(OC)cc12` [Compound 10, N-(2-(5-Methoxy-1H-indol-3-yl)ethyl)prop-2-yn-1-amine] returned a Papp in data set [6] of 12.3 ± 0.62 ×10⁻⁶ cm/s. Moreover, the EC50 stood at 20.9 ± 2.2 µM in the data set on NRF2 (AREc32 cells) and 16.2 ± 2.5 µM in data set [3]. For the same compound, the “LD50 (µM) Mixed primary glial cultures” value in data set [2] is reported as over 30 µM. In addition, in data set [4], the “PAMPA Prediction” value was “CNS + (CNS + (high BBB permeability): Pe (10^−6 cm s^−1) > 4.0)”.
